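Step 1: Grow cells in 96-well plates. Step 2: Expose to compound for 48 hours at 5 concentrations. Step 3: Interpolate endpoints linearly; if unreached, use highest concentration. Abbreviation: GI50, concentration required for 50% inhibition of growth.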 Calls of active or inactive are those of the source. Rule as the data show it: active = GI50 up to about 1.1 µM and inactive = higher.
Legend:
Experiment in all cases: NCI anticancer screen, dose series, 48 h
OVCAR-5 = system: OVCAR-5
HOP-92 = system: HOP-92
SK-MEL-2 = system: SK-MEL-2
U-251 = system: U-251
786-0 = system: 786-0
NCI-H460 = system: NCI-H460
RXF 393 = system: RXF 393
LOX IMVI = system: LOX IMVI
HCT-15 = system: HCT-15
CCRF-CEM = system: CCRF-CEM
K562 = system: K562
NCI-H522 = system: NCI-H522
OVCAR-8 = system: OVCAR-8
UACC-62 = system: UACC-62
M14 = system: M14
ACHN = system: ACHN
SK-MEL-28 = system: SK-MEL-28
HCC 2998 = system: HCC 2998
SNB-75 = system: SNB-75

Structure (SMILES)	GI50 (OVCAR-5)	GI50 (HOP-92)	GI50 (SK-MEL-2)	GI50 (U-251)	GI50 (786-0)	GI50 (NCI-H460)	GI50 (RXF 393)	GI50 (LOX IMVI)	GI50 (HCT-15) [µM]	GI50 (CCRF-CEM)	GI50 (K562)	GI50 (NCI-H522)	GI50 (OVCAR-8)	GI50 (UACC-62)	GI50 (M14)	GI50 (ACHN)	GI50 (SK-MEL-28)	GI50 (HCC 2998)	GI50 (SNB-75)
Clc1ccc(-c2nn3c(-c4ccncc4)nnc3s2)cc1	> 100 µM (inactive)	41.6 µM (inactive)	> 100 µM (inactive)	25.9 µM (inactive)	11 µM (inactive)	> 100 µM (inactive)	25.6 µM (inactive)	> 100 µM (inactive)	16.4	> 100 µM (inactive)	> 100 µM (inactive)	> 100 µM (inactive)	> 100 µM (inactive)	> 100 µM (inactive)	> 100 µM (inactive)	61 µM (inactive)			
OCC1OC(n2nc(-c3ccccc3)nc2-c2cnccn2)C(O)C(O)C1O (centres undefined)	> 100 µM (inactive)	> 100 µM (inactive)		> 100 µM (inactive)	> 100 µM (inactive)	> 100 µM (inactive)		> 100 µM (inactive)	> 100	> 100 µM (inactive)	> 100 µM (inactive)	> 100 µM (inactive)	> 100 µM (inactive)	> 100 µM (inactive)	> 100 µM (inactive)		> 100 µM (inactive)	> 100 µM (inactive)	> 100 µM (inactive)
COc1ccc(C2NC(N)=C(C#N)C3=C2C(C)CCC3)cc1OC (centres undefined)	> 100 µM (inactive)		> 100 µM (inactive)	41.8 µM (inactive)	77.1 µM (inactive)		> 100 µM (inactive)	35.5 µM (inactive)	44.3	14.6 µM (inactive)	25.6 µM (inactive)		75.7 µM (inactive)	56 µM (inactive)	59.2 µM (inactive)	32.3 µM (inactive)	> 100 µM (inactive)		1.44 µM (inactive)
COC(OC)c1cccc2c1C(=O)CCC1(O)c3ccccc3C1C2 (centres undefined)	> 100 µM (inactive)		> 100 µM (inactive)		> 100 µM (inactive)			> 100 µM (inactive)	> 100	44.9 µM (inactive)	55.5 µM (inactive)	> 100 µM (inactive)	> 100 µM (inactive)	> 100 µM (inactive)	> 100 µM (inactive)		> 100 µM (inactive)	> 100 µM (inactive)	> 100 µM (inactive)
COC(=O)/C=C1\CCC(C)O1 (centres undefined)	> 100 µM (inactive)	24 µM (inactive)	> 100 µM (inactive)	> 100 µM (inactive)	> 100 µM (inactive)	> 100 µM (inactive)	> 100 µM (inactive)	> 100 µM (inactive)	> 100	> 100 µM (inactive)	> 100 µM (inactive)		> 100 µM (inactive)	> 100 µM (inactive)	> 100 µM (inactive)	> 100 µM (inactive)		> 100 µM (inactive)	39.5 µM (inactive)
CC(=O)C1(C(=O)C(=[N+]=[N-])S(=O)(=O)c2ccccc2)CC1	> 100 µM (inactive)		> 100 µM (inactive)	> 100 µM (inactive)	> 100 µM (inactive)	> 100 µM (inactive)	> 100 µM (inactive)	> 100 µM (inactive)	> 100	40.2 µM (inactive)	80.4 µM (inactive)	> 100 µM (inactive)	> 100 µM (inactive)	> 100 µM (inactive)	> 100 µM (inactive)	> 100 µM (inactive)	> 100 µM (inactive)	> 100 µM (inactive)	> 100 µM (inactive)
COc1ccc(C2=C(OC(=O)N(C)C)c3cccn3-c3cc(Cl)ccc3S2)cc1		6.78 µM (inactive)			> 10 µM (inactive)		> 10 µM (inactive)	> 10 µM (inactive)	> 10	8.07 µM (inactive)	8.91 µM (inactive)		> 10 µM (inactive)	> 10 µM (inactive)	> 10 µM (inactive)		> 10 µM (inactive)	> 10 µM (inactive)	> 10 µM (inactive)
O=C1NN=C2C=C(c3ccc(Cl)cc3)CC(c3cccc(Cl)c3)C12 (centres undefined)	26.5 µM (inactive)	9.79 µM (inactive)	19.7 µM (inactive)	18.9 µM (inactive)	21.4 µM (inactive)	19 µM (inactive)	14.5 µM (inactive)	18.5 µM (inactive)	13.9	23.6 µM (inactive)	17.1 µM (inactive)	15.8 µM (inactive)	45.4 µM (inactive)	15.8 µM (inactive)	38.3 µM (inactive)	19.9 µM (inactive)		17.1 µM (inactive)	
O=C(/C(=N/Nc1ccccc1)c1ccc([N+](=O)[O-])cc1)c1ccc([N+](=O)[O-])cc1	> 100 µM (inactive)	46.2 µM (inactive)	> 100 µM (inactive)	> 100 µM (inactive)	> 100 µM (inactive)	> 100 µM (inactive)	> 100 µM (inactive)		39		64.4 µM (inactive)	21.9 µM (inactive)	> 100 µM (inactive)	> 100 µM (inactive)	> 100 µM (inactive)	> 100 µM (inactive)	> 100 µM (inactive)	> 100 µM (inactive)	85.5 µM (inactive)
CC(C)C.C[N+](C)(C)C.OC(c1ccccc1)(C(F)(F)F)C(F)(F)F.OC(c1ccccc1)(C(F)(F)F)C(F)(F)F.[SiH3-]	2.28 µM (inactive)	< 0.01 µM (active)	9.1 µM (inactive)	2.07 µM (inactive)	2.97 µM (inactive)	2.04 µM (inactive)	3.18 µM (inactive)		2.13		3.89 µM (inactive)	6.01 µM (inactive)	9.23 µM (inactive)		1.05 µM (active)	8.51 µM (inactive)	12.4 µM (inactive)	3.56 µM (inactive)	0.536 µM (active)
O=C(c1ccccc1)c1c(CC(O)c2ccccn2)n(C(=O)c2ccccc2)c2ccccc12 (centres undefined)	20.7 µM (inactive)	18.9 µM (inactive)	14.9 µM (inactive)	25.1 µM (inactive)	26.1 µM (inactive)	21.5 µM (inactive)			23.4	25.6 µM (inactive)	27.9 µM (inactive)	20.3 µM (inactive)	29.2 µM (inactive)	15.7 µM (inactive)	18.9 µM (inactive)	26.7 µM (inactive)	20.4 µM (inactive)	31.5 µM (inactive)	8.04 µM (inactive)
CC(C)C(=O)OCC1OC(n2c(Br)nc3c(=O)[nH]c(N)nc32)C(OC(=O)C(C)C)C1OC(=O)C(C)C (centres undefined)	75.2 µM (inactive)	> 100 µM (inactive)	68.1 µM (inactive)		23.1 µM (inactive)	23.7 µM (inactive)		19.8 µM (inactive)	> 100			35.2 µM (inactive)	31.4 µM (inactive)	31.8 µM (inactive)	> 100 µM (inactive)	> 100 µM (inactive)			83.9 µM (inactive)
O=C1c2ccccc2-c2nc(-c3ccccc3)cc3c2c1nc1ccccc13	29.4 µM (inactive)		20 µM (inactive)	10.9 µM (inactive)	25.2 µM (inactive)		29.5 µM (inactive)	1.77 µM (inactive)	11.2	0.59 µM (active)	1 µM (active)		16.4 µM (inactive)	2.56 µM (inactive)	5.55 µM (inactive)	18.5 µM (inactive)	9.25 µM (inactive)	13.8 µM (inactive)	
